{"source": "paper PMC6722498", "about": "“Non-CYP2D6 Variants Selected by a GWAS Improve the Prediction of Impaired Tamoxifen Metabolism in Patients with Breast Cancer” (Journal of Clinical Medicine, 2019)", "key": {"[1]": {"tested_on": "estrogen receptor (ER)", "set-up": "method as in PMID 15111773, PMID 16690721, PMID 21451508", "settings": "fold higher; cited from earlier work"}, "[2]": {"test": "Steady-state plasma concentration of (Z)-endoxifen (UPLC-MS/MS) in tamoxifen-treated breast cancer patients", "assay_type": "in vivo, human", "settings": "tamoxifen 20 mg daily", "source_text": "(§1) Between May 2012 and June 2014, 293 patients were recruited for a study of CYP2D6 genotype association with plasma concentrations of tamoxifen and its metabolites. Details of the inclusion criteria, study protocol, genotyping and mass spectrometry (MS) methodology, and primary results were reported previously. Briefly, all patients were Polish Caucasians, unselected women with verified hormone receptor-positive breast cancer (median age at diagnosis: 55 years; range: 25–95 years) receiving the standard treatment of 20 mg of tamoxifen daily for at least 1 month to ensure the steady-state plasma concentration of tested compounds. The median time between the initiation of tamoxifen treatment and blood sample collection was 21.5 months. Six patients had plasma drug concentrations <10% of the mean tamoxifen level across all patients and were excluded from further analyses.\n(§2) As previously described, whole blood samples were collected at study enrollment, and plasma was immediately separated and stored at −80 °C until ultraperformance liquid chromatography tandem MS (UPLC-MS/MS) analysis. For all samples, plasma concentrations of tamoxifen and its 14 key metabolites were measured, including the following: NDM-Tam, (Z)-endoxifen, (E)-endoxifen, 3-OH-NDM-Tam, 4′-OH-NDM-Tam, (Z)-4-OH-Tam, 3-OH-Tam, 4′-OH-Tam, (Z)-α-OH-Tam, (E)-α-OH-Tam, Tam-N-oxide, Tam-N-β-D-glucuronide (Tam-N-gluc), (E/Z)-4-OH-NDM-Tam-β-D-glucuronide ((E/Z)-4-OH-NDM-Tam-gluc), and (E)-4-OH-Tam-O-β-D-glucuronide ((E)-4-OH-Tam-O-gluc). All of the above compounds and deuterated internal standards (Tam-d5, NDM-Tam-d5, and (Z)-4-OH-Tam-d5) were from Toronto Research Chemicals (North York, ON, Canada). Details of the sample preparation method, MS/MS parameters, and linearity ranges of the metabolite standards are included in File S1.\nSample preparation was carried out as described by Dahmane et al., with slight modifications, including protein precipitation by acetonitrile. Briefly, 100 µl of plasma was mixed with 300 µl of ISs solution (3.3 ng/ml of Tam-d5, 3.3 ng/ml of NDM-Tam-d5 and 4.2 ng/ml of (Z)-4-OH-Tam-d5) in acetonitrile. After vortexing and centrifugation (10 min; 18,000× g), 350 µl of clear supernatant was evaporated under nitrogen in 55°C. Finally, samples were dissolved in 100 µl of 10 mM ammonium formate in 50% methanol.\nFor sample separation, an Acquity UPLC system equipped with Acquity BEH Shield RP18 column (100 × 2.1 mm, 1.7 µm particle size) (Waters, Milford, MA, USA) was used. The column was thermostatted at 70°C. The mobile phase A consisted of ultrapure water, and phase B consisted of 0.1% formic acid in acetonitrile. The flow rate was 0.6 ml/min and the total run time was 16 min per sample under nonlinear gradient condition as follows: 10% to 80% B for 12 min (concave curve), 80% B for 2 min, 95% B for 1 min and 10% B for 1 min.\nDetection was performed on a triple quadrupole mass spectrometer Xevo TQ-MS (Waters) in the positive ion electrospray ionization mode, with general mass spectrometry (MS) parameters as follows: capillary voltage, 3 kV; desolvation temperature, 550°C; desolvation gas (nitrogen) flow, 1000 l/h; cone gas (nitrogen) flow, 100 l/h and collision gas (argon) flow, 0.15 ml/min. Waters QuanLynx software was used for chromatograms integration and quantitation.\nAll compounds were divided between two calibration sets, A and B (Table 1), based on characteristic ions and retention times. Each set consisted of six calibration samples (CAL1 to CAL6) prepared by spiking blank plasma sample by an appropriate amount of analyte. The calibration range was chosen based on others’ published data, expected steady-state plasma metabolite concentration and our previous measurements. Linear calibration curves were obtained by plotting response (obtained by dividing peak area of analyte by peak area of internal standard) against calibration point of known concentration. […]"}, "[3]": {"test": "Metabolic ratio (MR): (Z)-endoxifen plasma concentration divided by the sum of concentrations of tamoxifen and other measured metabolites", "assay_type": "in vivo, human", "settings": "for Metabolic Ratio of (Z)-endoxifen, Mean ± SD: tamoxifen 20 mg daily, plasma; for Metabolic ratio (MR): individual tamoxifen-treated breast cancer patient samples", "source_text": "We previously reported that the CYP2D6 genotype accounts for 51% of the variability in tamoxifen metabolism directed toward endoxifen production, expressed as the metabolic ratio (MR) of (Z)-endoxifen (the major isomer of endoxifen produced from tamoxifen) plasma concentration divided by the sum of concentrations of tamoxifen and other measured metabolites. The metabolic ratio is more useful than (Z)-endoxifen concentration alone, because it accounts for omitted drug doses or the concomitant use of CYP2D6 inhibitors. Using simple linear regression, we estimated that an MR value of 0.0146 corresponds to the predefined 6 ng mL^−1 (Z)-endoxifen efficacy threshold level. Here, we adopted a genome-wide association study (GWAS) approach to search for new DNA variants that could assist in the prediction of impaired tamoxifen metabolism in Polish patients with breast cancer treated with the standard daily dose (20 mg).\nas §1, §2\nGenomic DNA samples extracted from blood were genotyped for CYP2D6 alleles, according to the nomenclature described at https://www.parmvar.org/gene/CYP2D6 [10], as previously reported. Briefly, individual TaqMan allelic discrimination assays were performed for 11 SNPs, and 3 TaqMan Gene Copy Number Assays were conducted to assess gene deletion or duplication (Thermo Fisher, Waltham, MA, USA). Each CYP2D6 allele was assigned to one of four phenotypic categories, according to its associated enzyme function. PM (nonfunctional) alleles included CYP2D6*3, *4, *5, *6, and *7; IM (reduced-function) alleles were CYP2D6*9, *10, *17, and *41; NM (WT; fully functional) alleles included CYP2D6*1 and *2; and UM (increased-function) alleles were duplicates of NM variants, such as CYP2D6*1XN and *2XN. For the current study, patients were categorized into two groups of CYP2D6 functional activity: 1) Impaired metabolizers, who were presumed to have impaired metabolism of tamoxifen toward endoxifen (with CYP2D6 diplotypes PM/PM, IM/PM, IM/IM, NM/PM, and NM/IM), and 2) normal metabolizers, with predicted therapeutically effective tamoxifen metabolism (carrying CYP2D6 diplotypes NM/NM and NM/UM)."}, "[4]": {"set-up": "method as in PMID 26232141", "settings": "simple linear regression; corresponds to predefined 6 ng mL^−1 (Z)-endoxifen threshold; cited from earlier work"}, "[5]": {"set-up": "method as in PMID 26232141", "settings": "Polish women with fully active CYP2D6 (NM/NM); tamoxifen 20 mg daily; cited from earlier work"}, "[6]": {"tested_on": "breast cancer", "settings": "cited from earlier work"}}, "note": "Values joined by “and” are separate entries in the source; they are usually repeats but may differ in a detail not shown here. Identical values can stand only once. Like-named read-outs stand apart in the source and are kept apart here.", "data": [{"compound": "4-hydroxy-tamoxifen [4-OH-Tam]", "values": [{"measurement": "antiestrogenic potency relative to other tamoxifen metabolites and the parent drug", "setting": "[1]", "result": "up to 100 fold"}]}, {"compound": "CC/C(=C(\\c1ccc(O)cc1)c1ccc(OCCNC)cc1)c1ccccc1", "note": "[(Z)-endoxifen, (Z)-4-hydroxy-N-desmethyl-tamoxifen]", "values": [{"measurement": "(Z)-endoxifen steady-state plasma concentration, Mean ± SD", "setting": "[2]; CYP2D6 genotype IM/IM (n=3)", "result": "3.05 ± 1.91", "unit": "ng/mL"}, {"measurement": "(Z)-endoxifen steady-state plasma concentration, Mean ± SD", "setting": "[2]; CYP2D6 genotype IM/PM (n=12)", "result": "2.22 ± 0.87", "unit": "ng/mL"}, {"measurement": "(Z)-endoxifen steady-state plasma concentration, Mean ± SD", "setting": "[2]; CYP2D6 genotype NM/IM (n=44)", "result": "5.60 ± 3.26", "unit": "ng/mL"}, {"measurement": "(Z)-endoxifen steady-state plasma concentration, Mean ± SD", "setting": "[2]; CYP2D6 genotype NM/NM (n=90)", "result": "7.26 ± 3.18", "unit": "ng/mL"}, {"measurement": "(Z)-endoxifen steady-state plasma concentration, Mean ± SD", "setting": "[2]; CYP2D6 genotype NM/PM (n=99)", "result": "4.85 ± 2.46", "unit": "ng/mL"}, {"measurement": "(Z)-endoxifen steady-state plasma concentration, Mean ± SD", "setting": "[2]; CYP2D6 genotype NM/UM (n=18)", "result": "6.96 ± 3.75", "unit": "ng/mL"}, {"measurement": "(Z)-endoxifen steady-state plasma concentration, Mean ± SD", "setting": "[2]; CYP2D6 genotype PM/PM (n=21)", "result": "1.79 ± 0.66", "unit": "ng/mL"}, {"measurement": "Metabolic Ratio of (Z)-endoxifen, Mean ± SD", "setting": "[3]; CYP2D6 genotype IM/IM (n=3)", "result": "0.0063 ± 0.0022"}, {"measurement": "Metabolic Ratio of (Z)-endoxifen, Mean ± SD", "setting": "[3]; CYP2D6 genotype IM/PM (n=12)", "result": "0.0047 ± 0.0014"}, {"measurement": "Metabolic Ratio of (Z)-endoxifen, Mean ± SD", "setting": "[3]; CYP2D6 genotype NM/IM (n=44)", "result": "0.0125 ± 0.0054"}, {"measurement": "Metabolic Ratio of (Z)-endoxifen, Mean ± SD", "setting": "[3]; CYP2D6 genotype NM/NM (n=90)", "result": "0.0185 ± 0.0057"}, {"measurement": "Metabolic Ratio of (Z)-endoxifen, Mean ± SD", "setting": "[3]; CYP2D6 genotype NM/PM (n=99)", "result": "0.0108 ± 0.0043"}, {"measurement": "Metabolic Ratio of (Z)-endoxifen, Mean ± SD", "setting": "[3]; CYP2D6 genotype NM/UM (n=18)", "result": "0.0201 ± 0.0076"}, {"measurement": "Metabolic Ratio of (Z)-endoxifen, Mean ± SD", "setting": "[3]; CYP2D6 genotype PM/PM (n=21)", "result": "0.0037 ± 0.0013"}, {"measurement": "Metabolic ratio (MR)", "setting": "[3]; CYP2D6 genotype IM/PM", "result": "0.00274 and 0.00459 and 0.0029 and 0.00363"}, {"measurement": "Metabolic ratio (MR)", "setting": "[3]; CYP2D6 genotype NM/IM", "result": "0.00647 and 0.0081 and 0.00839 and 0.01209 and 0.0056 and 0.01085 and 0.0096 and 0.00997 and 0.01604"}, {"measurement": "Metabolic ratio (MR)", "setting": "[3]; CYP2D6 genotype NM/NM", "result": "0.01773 and 0.01628 and 0.0192 and 0.02007 and 0.01314 and 0.01689 and 0.01957 and 0.01357 and 0.0089 and 0.01713 and 0.01204 and 0.01768 and 0.01853 and 0.01753 and 0.01866 and 0.01752 and 0.01504 and 0.00404 and 0.01279 and 0.01592 and 0.01076 and 0.01005 and 0.01645"}, {"measurement": "Metabolic ratio (MR)", "setting": "[3]; CYP2D6 genotype NM/PM", "result": "0.01496 and 0.01155 and 0.00944 and 0.00815 and 0.01001 and 0.01495 and 0.00803 and 0.01657 and 0.01419 and 0.01098 and 0.0072 and 0.00801 and 0.01175 and 0.00523 and 0.00652 and 0.00522 and 0.00788 and 0.00603 and 0.00607 and 0.00605 and 0.01073"}, {"measurement": "Metabolic ratio (MR)", "setting": "[3]; CYP2D6 genotype NM/UM", "result": "0.013 and 0.01894 and 0.02933 and 0.01233"}, {"measurement": "Metabolic ratio (MR)", "setting": "[3]; CYP2D6 genotype PM/PM", "result": "0.00294 and 0.00405 and 0.0035 and 0.00163"}, {"measurement": "MR value corresponding to the (Z)-endoxifen efficacy threshold level", "setting": "[4]", "result": 0.0146}, {"measurement": "proportion of patients not achieving the beneficial threshold level of plasma (Z)-endoxifen", "setting": "[5]", "result": "over 30%"}]}, {"compound": "CC/C(=C(\\c1ccc(O)cc1)c1ccc(OCCNC)cc1)c1ccccc1", "note": "[endoxifen, 4-hydroxy-N-desmethyl-tamoxifen]", "values": [{"measurement": "minimal threshold level of endoxifen to achieve the desired treatment efficacy", "setting": "[6]; large retrospective study, lowest quintile", "result": "> 5.97", "unit": "ng/mL"}, {"measurement": "lower breast cancer recurrence rate relative to patients with lower endoxifen concentrations", "setting": "[6]; patients with endoxifen concentration >5.97 ng mL^−1", "result": 26, "unit": "%"}, {"measurement": "endoxifen efficacy threshold level", "setting": "[6]; ref 30", "result": 5.3, "unit": "ng/mL"}, {"measurement": "endoxifen efficacy threshold level", "setting": "[6]; ref 32", "result": 3.36, "unit": "ng/mL"}, {"measurement": "antiestrogenic potency relative to other tamoxifen metabolites and the parent drug", "setting": "[1]", "result": "up to 100 fold"}]}]}
